ChEMBL document CHEMBL6153074, “Discovery of novel dual tubulin and MMPs inhibitors for the treatment of lung cancer and overcoming drug resistance” (Eur J Med Chem, 2025)
pIC50: −log10 of the molar value. The source made the active and inactive calls. The calls are words filed in the database; no cut-off is given here.

How the values were obtained:
[1] = test system: NCI-H460; experiment: Antiproliferative activity against human NCI-H460 cells by CCK8 assay
[2] = test system: MCF7; experiment: Antiproliferative activity against human MCF7 cells by CCK8 assay
[3] = test system: A549; experiment: cells; settings: Homo sapiens
Description: Antiproliferative activity against human A549 cells by CCK8 assay

[4] = test system: MDA-MB-231; experiment: Antiproliferative activity against human MDA-MB-231 cells by CCK8 assay
[5] = Antiproliferative activity against human MCF-10A cells by CCK8 assay; type: toxicity, cell-based
[6] = Antiproliferative activity against human L02 cells by CCK8 assay; type: toxicity, cell-based
[7] = molecular target: Matrix metalloproteinase-9 (Homo sapiens, UniProt P14780); experiment: Inhibition of MMP-9 (unknown origin) using fluorogenic-McaPro-Leu-Gly-Leu-Dpa-Ala-Arg-NH2 as substrate
[8] = molecular target: 72 kDa type IV collagenase (Homo sapiens, UniProt P08253); experiment: Inhibition of MMP-2 (unknown origin) using fluorogenic-McaPro-Leu-Gly-Leu-Dpa-Ala-Arg-NH2 as substrate
[9] = molecular target: Stromelysin-1 (Homo sapiens, UniProt P08254); experiment: Inhibition of MMP-3 (unknown origin) using fluorogenic-McaPro-Leu-Gly-Leu-Dpa-Ala-Arg-NH2 as substrate
[10] = Selectivity index, ratio of IC50 for antiproliferative activity against human L02 cells to IC50 for antiproliferative activity against human A549 cells; type: toxicity, cell-based; settings: L02 cells and A549 cells, read-out: Ratio IC50
[11] = Selectivity index, ratio of IC50 for antiproliferative activity against human MCF-10A cells to IC50 for antiproliferative activity against human MCF7 cells; type: toxicity, cell-based; settings: MCF-10A cells and MCF7 cells, read-out: Ratio IC50
[12] = test system: A549; experiment: Induction of apoptosis in human A549 cells assessed as necrotic cells at 0.5 uM incubated for 24 hrs by Annexin V-FITC/PI staining based flow cytometry (reference value: 0.13 %); type: functional
[13] = test system: A549; experiment: Induction of apoptosis in human A549 cells assessed as late apoptotic cells at 0.5 uM incubated for 24 hrs by Annexin V-FITC/PI staining based flow cytometry (reference value: 1.01 %); type: functional
[14] = test system: A549; experiment: Induction of cell cycle arrest in human A549 cells assessed as accumulation at G2 phase at 0.5 uM incubated for 24 hrs by PI staining based flow cytometry (reference value: 3.37 %); type: functional
[15] = test system: A549; experiment: Antitumor activity against human A549 cells xenografted in BALB/c mouse at 20 mg/kg, ip for 3 weeks administered on every 2 days relative to control; type: functional; settings: A549, 504 h, read-out: TGI
[16] = test system: A549; experiment: Induction of intracellular ROS accumulation in human A549 cells at 0.5 uM incubated for 24 hrs by DCFH-DA dye based flow cytometry (reference value: 4.96 %); type: functional
[17] = test system: A549; experiment: Induction of apoptosis in human A549 cells assessed as viable cells at 0.5 uM incubated for 24 hrs by Annexin V-FITC/PI staining based flow cytometry (reference value: 95.82 %); type: functional; settings: read-out: Activity
[18] = molecular target: T1, Tubulin (Homo sapiens) (UniProt P68371+Q9H4B7+P0DPH7+P68366+Q13509+Q71U36+P04350+Q3ZCM7+P07437+P68363+Q9BQE3+Q6PEY2+Q13885+Q9BVA1+Q9BUF5); experiment: Disruption of microtubule network in human A549 cells assessed as cell disorganisation at 5 uM incubated for 24 hrs by immunofluorescence based analysis
[19] = test system: A549; experiment: Induction of cell cycle arrest in human A549 cells assessed as accumulation at G1 phase at 0.5 uM incubated for 24 hrs by PI staining based flow cytometry (reference value: 58.67 %); type: functional
[20] = test system: A549; experiment: Induction of apoptosis in human A549 cells assessed as early apoptotic cells at 0.5 uM incubated for 24 hrs by Annexin V-FITC/PI staining based flow cytometry (reference value: 3.04 %); type: functional
[21] = molecular target: T1, Tubulin (Homo sapiens); experiment: Disruption of microtubule network in human A549 cells assessed as contraction towards cell border at 5 uM incubated for 24 hrs by immunofluorescence based analysis
[22] = test system: A549; experiment: Anti-migration activity in human A549 cells assessed as migration rate at 0.5 uM incubated for 24 hrs by wound healing assay (reference value: 73.94 %); type: functional
[23] = test system: A549; experiment: Induction of mitochondrial membrane potential loss in human A549 cells at 0.5 uM incubated for 24 hrs by JC-1 dye based analysis (reference value: 3.14 %); type: functional
[24] = test system: A549; experiment: Induction of cell cycle arrest in human A549 cells assessed as accumulation at S phase at 0.5 uM incubated for 24 hrs by PI staining based flow cytometry (reference value: 37.95 %); type: functional

Sequence of Stromelysin-1 (P08254 whole entry): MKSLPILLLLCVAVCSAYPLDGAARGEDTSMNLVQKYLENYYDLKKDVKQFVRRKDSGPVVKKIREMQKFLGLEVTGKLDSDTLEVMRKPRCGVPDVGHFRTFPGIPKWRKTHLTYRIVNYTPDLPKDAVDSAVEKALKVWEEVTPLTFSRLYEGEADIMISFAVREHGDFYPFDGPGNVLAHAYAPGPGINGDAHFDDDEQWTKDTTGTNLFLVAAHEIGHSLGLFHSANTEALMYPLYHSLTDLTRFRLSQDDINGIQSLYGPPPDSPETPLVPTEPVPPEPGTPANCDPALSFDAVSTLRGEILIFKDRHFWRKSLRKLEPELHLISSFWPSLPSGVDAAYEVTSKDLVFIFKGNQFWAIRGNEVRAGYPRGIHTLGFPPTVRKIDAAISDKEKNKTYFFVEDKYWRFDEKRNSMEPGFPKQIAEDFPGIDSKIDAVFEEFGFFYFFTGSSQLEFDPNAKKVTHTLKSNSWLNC
Sequence of Matrix metalloproteinase-9 (P14780 whole entry): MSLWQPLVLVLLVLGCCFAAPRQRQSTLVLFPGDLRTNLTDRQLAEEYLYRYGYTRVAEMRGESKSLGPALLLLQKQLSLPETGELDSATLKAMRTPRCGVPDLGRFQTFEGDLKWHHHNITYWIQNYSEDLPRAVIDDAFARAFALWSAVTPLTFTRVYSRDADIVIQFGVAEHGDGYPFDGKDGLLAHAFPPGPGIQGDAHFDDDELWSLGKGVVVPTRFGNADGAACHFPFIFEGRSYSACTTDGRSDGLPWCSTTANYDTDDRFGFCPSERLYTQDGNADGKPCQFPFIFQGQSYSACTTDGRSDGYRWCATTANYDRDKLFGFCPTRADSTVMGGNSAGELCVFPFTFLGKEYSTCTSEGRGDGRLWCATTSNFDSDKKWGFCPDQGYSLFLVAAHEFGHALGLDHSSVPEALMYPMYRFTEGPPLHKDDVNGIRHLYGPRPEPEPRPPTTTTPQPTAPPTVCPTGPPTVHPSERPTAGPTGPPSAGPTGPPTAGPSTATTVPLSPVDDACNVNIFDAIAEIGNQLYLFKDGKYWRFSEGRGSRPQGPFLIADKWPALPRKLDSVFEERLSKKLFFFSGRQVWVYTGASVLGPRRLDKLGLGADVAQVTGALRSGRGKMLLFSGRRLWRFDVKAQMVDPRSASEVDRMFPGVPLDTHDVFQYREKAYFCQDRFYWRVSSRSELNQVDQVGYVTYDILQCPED
Sequence of 72 kDa type IV collagenase (P08253 whole entry): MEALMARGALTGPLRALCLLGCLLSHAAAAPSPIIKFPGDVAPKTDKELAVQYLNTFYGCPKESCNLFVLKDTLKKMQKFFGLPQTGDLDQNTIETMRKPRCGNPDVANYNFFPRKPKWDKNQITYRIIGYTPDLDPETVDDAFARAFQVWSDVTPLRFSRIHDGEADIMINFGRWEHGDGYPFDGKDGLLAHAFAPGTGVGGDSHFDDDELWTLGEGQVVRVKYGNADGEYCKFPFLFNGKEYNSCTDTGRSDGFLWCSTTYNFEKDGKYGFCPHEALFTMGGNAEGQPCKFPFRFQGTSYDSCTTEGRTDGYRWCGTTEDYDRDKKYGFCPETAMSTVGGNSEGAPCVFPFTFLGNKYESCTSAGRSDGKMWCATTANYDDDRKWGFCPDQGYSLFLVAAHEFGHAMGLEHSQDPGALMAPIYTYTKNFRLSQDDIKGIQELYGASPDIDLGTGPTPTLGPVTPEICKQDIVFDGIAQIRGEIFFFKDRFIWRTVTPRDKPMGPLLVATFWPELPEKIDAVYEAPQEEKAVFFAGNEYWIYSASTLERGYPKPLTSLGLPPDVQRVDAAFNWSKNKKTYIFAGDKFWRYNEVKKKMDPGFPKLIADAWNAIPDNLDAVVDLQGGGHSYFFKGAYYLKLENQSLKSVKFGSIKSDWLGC

SMILES	pIC50 [1]	pIC50 [2]	pIC50 [3]	pIC50 [4]	further results
CCOP(=O)(OCC)C(Nc1ccc(CC(=O)Oc2cc(/C=C/C(=O)c3cc(OC)c(OC)c(OC)c3)ccc2OC)cc1)c1cc(OC)c(OC)c(OC)c1 (centres undefined)	6.08	6.04	6.15	6.02	–
CCOP(=O)(OCC)C(Nc1ccc(CC(=O)Oc2cc(/C=C/C(=O)c3cc(OC)c(OC)c(OC)c3)ccc2OC)cc1)c1cccc(OC)c1 (centres undefined)	6.33	6.18	6.42	6.14	–
CCOP(=O)(OCC)C(Nc1ccc(CC(=O)Oc2cc(/C=C/C(=O)c3ccc(OC)c4c3OC(C)(C)C=C4)ccc2OC)cc1)c1cc(OC)c(OC)c(OC)c1 (centres undefined)	6.08	6.04	6.11	6.00	–
CCOP(=O)(OCC)C(Nc1ccc(CC(=O)Oc2cc(/C=C/C(=O)c3cc(OC)c(OC)c(OC)c3)ccc2OC)cc1)c1ccc(OC)cc1 (centres undefined)	6.18	6.12	6.26	6.08	–
CCOP(=O)(OCC)C(Nc1ccc(CC(=O)Oc2cc(/C=C/C(=O)c3cc(OC)c(OC)c(OC)c3)ccc2OC)cc1)c1ccc([N+](=O)[O-])cc1 (centres undefined)	6.37	6.29	6.48	6.24	–
CCOP(=O)(OCC)C(Nc1ccc(CC(=O)Oc2cc(/C=C/C(=O)c3cc(OC)c(OC)c(OC)c3)ccc2OC)cc1)c1ccc(C)cc1 (centres undefined)	6.34	6.27	6.40	6.18	–
COc1cccc2c1C(=O)c1c(O)c3c(c(O)c1C2=O)C[C@@](O)(C(=O)CO)C[C@@H]3O[C@H]1C[C@H](N)[C@H](O)[C@H](C)O1 [DOXORUBICIN]	–	–	–	–	pIC50 [5]: 6.01; pIC50 [6]: 5.88
CCOP(=O)(OCC)C(Nc1ccc(CC(=O)Oc2cc(/C=C/C(=O)c3ccc(OC)c4c3OC(C)(C)C=C4)ccc2OC)cc1)c1ccccc1 (centres undefined)	6.16	6.10	6.23	6.05	–
CCOP(=O)(OCC)C(Nc1ccc(CC(=O)Oc2cc(/C=C/C(=O)c3ccc(OC)c4c3OC(C)(C)C=C4)ccc2OC)cc1)c1cccc(F)c1 (centres undefined)	6.43	6.37	6.54	6.26	–
CCOP(=O)(OCC)C(Nc1ccc(CC(=O)Oc2cc(/C=C/C(=O)c3ccc(OC)c4c3OC(C)(C)C=C4)ccc2OC)cc1)c1ccc(Cl)cc1 (centres undefined)	6.12	6.09	6.15	6.01	–
CCOP(=O)(OCC)C(Nc1ccc(CC(=O)Oc2cc(/C=C/C(=O)c3ccc(OC)c4c3OC(C)(C)C=C4)ccc2OC)cc1)c1ccc(OC)cc1 (centres undefined)	6.18	6.10	6.25	6.03	–
CCOP(=O)(OCC)C(Nc1ccc(CC(=O)Oc2cc(/C=C/C(=O)c3ccc(OC)c4c3OC(C)(C)C=C4)ccc2OC)cc1)c1ccc(Br)cc1 (centres undefined)	6.11	6.08	6.13	6.02	–
Cc1ccc2nc(-c3cccc(NC(=O)CCc4ccccc4)c3)[nH]c2c1	–	–	–	–	pIC50 [7]: 4.55; pIC50 [8]: 4.44; pIC50 [9]: 4.33
CCOP(=O)(OCC)C(Nc1ccc(CC(=O)Oc2cc(/C=C/C(=O)c3ccc(OC)c4c3OC(C)(C)C=C4)ccc2OC)cc1)c1cccc([N+](=O)[O-])c1 (centres undefined)	6.52	6.48	6.69	6.34	–
CCOP(=O)(OCC)C(Nc1ccc(CC(=O)Oc2cc(/C=C/C(=O)c3cc(OC)c(OC)c(OC)c3)ccc2OC)cc1)c1cccc(C)c1 (centres undefined)	6.41	6.38	6.51	6.24	–
CCOP(=O)(OCC)C(Nc1ccc(CC(=O)Oc2cc(/C=C/C(=O)c3cc(OC)c(OC)c(OC)c3)ccc2OC)cc1)c1ccccc1 (centres undefined)	6.15	6.08	6.20	6.03	–
CCOP(=O)(OCC)C(Nc1ccc(CC(=O)Oc2cc(/C=C/C(=O)c3ccc(OC)c4c3OC(C)(C)C=C4)ccc2OC)cc1)c1ccc(C)cc1 (centres undefined)	6.25	6.12	6.32	6.10	–
CCOP(=O)(OCC)C(Nc1ccc(CC(=O)Oc2cc(/C=C/C(=O)c3cc(OC)c(OC)c(OC)c3)ccc2OC)cc1)c1ccc(Br)cc1 (centres undefined)	6.12	6.06	6.22	6.03	–
COc1ccc(/C=C/C(=O)c2ccc(OC)c3c2OC(C)(C)C=C3)cc1 [MILLEPACHINE]	5.10	5.25	5.23	5.37	–
CCOP(=O)(OCC)C(Nc1ccc(CC(=O)Oc2cc(/C=C/C(=O)c3ccc(OC)c4c3OC(C)(C)C=C4)ccc2OC)cc1)c1ccc(OC)c(OC)c1 (centres undefined)	6.14	6.09	6.22	6.03	–
CCOP(=O)(OCC)C(Nc1ccc(CC(=O)Oc2cc(/C=C/C(=O)c3ccc(OC)c4c3OC(C)(C)C=C4)ccc2OC)cc1)c1ccc([N+](=O)[O-])cc1 (centres undefined)	6.33	6.26	6.43	6.19	–
CCOP(=O)(OCC)C(Nc1ccc(CC(=O)Oc2cc(/C=C/C(=O)c3cc(OC)c(OC)c(OC)c3)ccc2OC)cc1)c1ccc(OC)c(OC)c1 (centres undefined)	6.13	6.09	6.17	6.05	–
COc1ccc(/C=C/C(=O)c2ccc(OC)c3c2OC(C)(C)C=C3)cc1O	5.97	5.94	5.91	5.98	–
CCOP(=O)(OCC)C(Nc1ccc(CC(=O)Oc2cc(/C=C/C(=O)c3cc(OC)c(OC)c(OC)c3)ccc2OC)cc1)c1cccc(Cl)c1 (centres undefined)	6.07	6.09	6.19	6.05	–
CCOP(=O)(OCC)C(Nc1ccc(CC(=O)Oc2cc(/C=C/C(=O)c3ccc(OC)c4c3OC(C)(C)C=C4)ccc2OC)cc1)c1cccc(Cl)c1 (centres undefined)	6.11	6.14	6.18	6.03	–
CCOP(=O)(OCC)C(Nc1ccc(CC(=O)Oc2cc(/C=C/C(=O)c3cc(OC)c(OC)c(OC)c3)ccc2OC)cc1)c1cccc(F)c1 (centres undefined)	6.57	6.45	6.60	6.31	–
CC(=O)O[C@H]1C(=O)[C@@]2(C)[C@H]([C@H](OC(=O)c3ccccc3)[C@]3(O)C[C@H](OC(=O)[C@H](O)[C@@H](NC(=O)c4ccccc4)c4ccccc4)C(C)=C1C3(C)C)[C@]1(OC(C)=O)CO[C@@H]1C[C@@H]2O [PACLITAXEL]	6.81	6.91	6.96	6.68	selectivity ratio [10]: 0.87; pIC50 [5]: 6.94; pIC50 [6]: 7.02; selectivity ratio [11]: 0.93
CCOP(=O)(OCC)C(Nc1ccc(CC(=O)Oc2cc(/C=C/C(=O)c3ccc(OC)c4c3OC(C)(C)C=C4)ccc2OC)cc1)c1ccc(F)cc1 (centres undefined)	6.30	6.25	6.41	6.16	–
COc1ccc(/C=C/C(=O)c2cc(OC)c(OC)c(OC)c2)cc1O	6.27	6.14	6.34	6.09	Activity [12]: 0.84%; Activity [13]: 5.23%; selectivity ratio [10]: 2.4; Activity [14]: 69.1%; inhibition in vivo at 20 mg/kg [15]: 64.7%; pIC50 [5]: 6.01; Activity [16]: 54.64%; viability at 0.5 µM [17]: 69.5%; Activity [18]: Active; Activity [19]: 16.56%; Activity [20]: 24.49%; pIC50 [6]: 5.96; Activity [21]: Active; Activity [22]: 45.16%; selectivity ratio [11]: 1.34; Activity [23]: 40.88%; Activity [24]: 14.34%
